In patent publication US12071438B2, “Crystal forms of an ALK2 inhibitor” (Keros Therapeutics, Inc., priority 2018, dated 2024):

Columns and labels:
Format in all cases: physicochemical
[1] = 97% RH stress in polymorph screening study; conditions: RT, no solvent
[2] = Form A and Form B competitive slurries (thermodynamically stable polymorph)
Protocol: To determine the thermodynamically stable polymorph between anhydrous Forms A and B, competitive slurries were conducted in three different solvent systems: ethanol, tetrahydrofuran, and 2-butanone (MEK)/water (95:5). Ethanol and tetrahydrofuran were chosen based on the solubility of the material. MEK was chosen as a potential process solvent and water was added to boost the solubility.
Thus, additional competitive slurries were conducted in three additional solvent systems: ethanol/heptane (1:5), ethyl acetate/water (97:3), and isopropanol/water (99:1). The ethanol/heptane system was evaluated at −15° C., 5° C., ambient (RT), and 40° C. The water containing systems were only evaluated at ambient temperature. The slurries were conducted for 7 days instead of 5 days, as done in the above slurries. Form D was also included in the competitive slurries containing water.

[3] = Dynamic vapor sorption/desorption (DVS); conditions: for hygroscopicity by DVS / DVS weight gain and loss: 25° C.; for hygroscopicity by DVS: 0-95% RH; for DVS weight gain and loss: adsorption 0-95% RH, desorption to 0% RH
Protocol: (§1) Dynamic vapor sortion/desportion (DVS) analysis was conducted with a Hiden Isochema, IGAsorp, s/n IGSA 126. Samples were loaded in to a tared basket on the instrument and dried for 1 hour at 40° C. Samples were then analyzed at 25° C. with the following percent relative humidity (% RH) steps: Adsorption (% RH): 0.0, 10.0, 20.0, 30.0, 40.0, 50.0, 60.0, 70.0, 80.0, 90.0, 95.0, Desorption (% RH): 90.0, 80.0, 70.0, 60.0, 50.0, 40.0, 30.0, 20.0, 10.0, 0.0.

[4] = XRPD analysis after DVS; conditions: post-DVS
Protocol: X-ray powder diffraction (XRPD) patterns were collected on a Bruker D8 diffractometer using Cu Kα radiation (40 kV, 40 mA), θ-2θ goniometer and divergence of 0.6 mm and receiving slits, and a Lynxeye detector. The instrument is performance checked using a certified Corundum standard (NIST 1976). The software used for data collection was Diffrac Plus XRD Commander v2.6.1 and the data were analyzed and presented using Materials Data Jade Software v 9.7.0. Samples were prepared by transferring 2 to 50 mg of sample to a zero background holder coated with a thin layer of petroleum jelly and leveled with a glass plate and analyzed at ambient temperature. The sample was rotated in its own plane during analysis.
as §1

hygroscopicity by DVS [3]	DVS weight gain and loss [3] [%]	XRPD after DVS analysis (form change) [4]	SMILES	also measured
–	–	–	COc1cc2c(-c3cnn4cc(N5CCC(N6CCN(C)CC6)CC5)cnc34)ccnc2cc1F	XRPD Result [1]: Form C,
non-hygroscopic	0.5	No change	COc1cc2c(-c3cnn4cc(N5CCC(N6CCN(C)CC6)CC5)cnc34)ccnc2cc1F [compound of Formula I free base, 7-fluoro-6-methoxy-4-(6-(4-(4-methylpiperazin-1-yl)piperidin-1-yl)pyrazolo[1,5-a]pyrimidin-3-yl)quinoline]	–
slightly hygroscopic	12	consistent with Form B	COc1cc2c(-c3cnn4cc(N5CCC(N6CCN(C)CC6)CC5)cnc34)ccnc2cc1F [Form B]	moisture gain onset in DVS ([3]; low relative humidities): begins immediately even at low relative humidities
–	–	–	COc1cc2c(-c3cnn4cc(N5CCC(N6CCN(C)CC6)CC5)cnc34)ccnc2cc1F [Form C]	thermodynamic stability at high water activity ([2]; high water activity (97:3 EtOAc/water)): more favored

SMILES	hygroscopicity by DVS [3]	DVS weight gain and loss [3] [%]	XRPD after DVS analysis (form change) [4]	also measured
COc1cc2c(-c3cnn4cc(N5CCC(N6CCN(C)CC6)CC5)cnc34)ccnc2cc1F [Form A]	hygroscopic	38	becomes highly disordered and converts to the hydrate, Form C	polymorph stability over time (competitive slurries) ([2]; 40° C. down to −15° C., 7 days versus 5 days): most stable polymorph; thermodynamic stability at low water activity ([2]; low water activity (99:1 IPA/water)): most thermodynamically stable; hygroscopicity by DVS below 80% RH ([3]; below 80% RH): non-hygroscopic
